Patent US20040047829A1, “Fluids for sanitizing the teats of dairy animals” (priority 2002, published 2004)

Experiment: Stability of ADBAC solutions
Format: physicochemical
Description: The principal antibacterial ingredient in these formulations is alkyl dimethyl benzyl ammonium chloride (ADBAC). ADBAC is effective in killing the bacteria associated with mastitis in milking animals, and is not an oxidant. It also has a slight detergent action and so assists in cleaning dirt off of the animal's teats. […] It is inexpensive and is obtained commercially in a convenient dry form under the trade name TIMSEN. In TIMSEN, urea is used as a carrier and a buffer in a weight ratio of about three parts urea to two parts ADBAC by weight. Urea will be in the sanitizing fluid when TIMSEN is used as the stock source for ADBAC, however, it will be understood that urea is not an active ingredient in these formulations.

Q: With “alkyl dimethyl benzyl ammonium chloride [ADBAC]” as the substance, how does the stability of solutions read?
A: stable for over a year
